According to patent publication US20250136633A1, “TELOMERE-TARGETING PHOSPHATIDYL-THIO CONJUGATES” (MAIA BIOTECHNOLOGY, INC., priority 2023, published 2025):

Tests used:
[1] = system: HT29 Colorectal Carcinoma Cells (CRC); test: In vitro anticancer activity (cytotoxicity) of phosphatidyl-THIO conjugates in HT29 cells; type: cell-based; conditions: for EC50: Homo sapiens, HT 29 CRC cells; for anticancer (cytotoxic) activity, in words: in vitro, comparison among the phosphatidyl conjugates and with the free pharmacophores
Procedure: The in vitro activity of Phosphatidyl-THIO conjugates were tested in HT29 Colorectal Carcinoma Cells (CRC) (Table 2)
Anticancer activity of the one or more phosphatidyl-THIO conjugate compounds disclosed herein, was evaluated in vitro in various cancer cell lines, according to commonly used procedures for assessment of compounds cytotoxicity, as out lined in the following publications: Mender, I., Gryaznov, S., Dikmen, Z. G., Wright, W. E., & Shay, J. W. (2015). Induction of telomere dysfunction mediated by the telomerase substrate precursor 6-thio-2′-deoxyguanosine. Cancer Discovery, 5, 82-95; Mender et al., (2020). Telomere Stress Potentiates STING-Dependent Anti-tumor Immunity. Cancer Cell, 38, 400-411.

cancer cells = test: Induction of telomere dysfunction-induced foci (TIF) and micronuclei in cancer cells; type: cell-based; conditions: treatment of cancer cells; data not shown

SMILES	EC50 [1] [nM]	anticancer (cytotoxic) activity, in words [1]	induction of telomere dysfunction-induced foci (TIF)-positive cells and micronuclei formation (cancer cells)
CCCCCCCC/C=C\CCCCCCCC(=O)OC[C@H](COP(=O)(O)OC[C@H]1O[C@@H](n2cnc3c(=S)[nH]c(N)nc32)C[C@@H]1O)OC(=O)CCCCCCC/C=C\CCCCCCCC [C18:01-6SdG, 5′-(1,2-dioleoyl-sn-glycero-3-phospho)-6-thio-2′-deoxyguanosine]	460	essentially recovered cytotoxic activity	
Nc1nc2c(ncn2[C@H]2C[C@H](O)[C@@H](CO)O2)c(=S)[nH]1 [Compound 6-thio-dG, 6-thio-2′-deoxyguanosine, reference compound]	200		
CCCC(=O)OC[C@H](COP(=O)(O)OC[C@H]1O[C@@H](n2cnc3c(=S)[nH]c(N)nc32)C[C@@H]1O)OC(=O)CCC [Compound C4-6SdG, 5′-(1,2-dibutyryl-sn-glycero-3-phospho)-6-thio-2′-deoxyguanosine]	260		
CCCCCC(=O)OC[C@H](COP(=O)(O)OC[C@H]1O[C@@H](n2cnc3c(=S)[nH]c(N)nc32)C[C@@H]1O)OC(=O)CCCCC [Compound C6-6SdG, 5′-(1,2-dihexanoyl-sn-glycero-3-phospho)-6-thio-2′-deoxyguanosine]	80		efficient induction
CCCCCC(=O)OC[C@H](COP(=O)(O)OC[C@H]1O[C@@H](n2cnc3c(=S)[nH]c(N)nc32)[C@H](O)[C@@H]1O)OC(=O)CCCCC [Compound C6-6SriboG, 5′-(1,2-dihexanoyl-sn-glycero-3-phospho)-6-thio-guanosine]	200		
CCCCCCCC(=O)OC[C@H](COP(=O)(O)OC[C@H]1O[C@@H](n2cnc3c(=S)[nH]c(N)nc32)C[C@@H]1O)OC(=O)CCCCCCC [Compound C8-6SdG, 5′-(1,2-dioctanoyl-sn-glycero-3-phospho)-6-thio-2′-deoxyguanosine]	350		
CCCCCCCC(=O)OC[C@H](COP(=O)(O)OC[C@H]1O[C@@H](n2cnc3c(=S)[nH]c(N)nc32)[C@H](O)[C@@H]1O)OC(=O)CCCCCCC [Compound C8-6SriboG, 5′-(1,2-dioctanoyl-sn-glycero-3-phospho)-6-thio-guanosine]	260		
CCCCCCCCCCCC(=O)OC[C@H](COP(=O)(O)OC[C@H]1O[C@@H](n2cnc3c(=S)[nH]c(N)nc32)C[C@@H]1O)OC(=O)CCCCCCCCCCC [Compound C12-6SdG, 5′-(1,2-dilauroyl-sn-glycero-3-phospho)-6-thio-2′-deoxyguanosine]	480		
CCCCCCCCCCCC(=O)OC[C@H](COP(=O)(O)OC[C@H]1O[C@@H](n2cnc3c(=S)[nH]c(N)nc32)[C@H](O)[C@@H]1O)OC(=O)CCCCCCCCCCC [Compound C12-6SriboG, 5′-(1,2-dilauroyl-sn-glycero-3-phospho)-6-thio-guanosine]	600		
CCCCCCCCCCCCCC(=O)OC[C@H](COP(=O)(O)OC[C@H]1O[C@@H](n2cnc3c(=S)[nH]c(N)nc32)C[C@@H]1O)OC(=O)CCCCCCCCCCCCC [Compound C14-6SdG, 5′-(1,2-dimyristoyl-sn-glycero-3-phospho)-6-thio-2′-deoxyguanosine]	490		
CCCCCCCCCCCCCCCCCC(=O)OC[C@H](COP(=O)(O)OC[C@H]1O[C@@H](n2cnc3c(=S)[nH]c(N)nc32)C[C@@H]1O)OC(=O)CCCCCCCCCCCCCCCCC [Compound C18-6SdG, 5′-(1,2-distearoyl-sn-glycero-3-phospho)-6-thio-2′-deoxyguanosine]	12400	least active	
